Measurements published in ChEMBL document CHEMBL1201862, “PubChem BioAssay data set” (2004).
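1) Cells in 96-well plates. 2) Compound, 48 h, 5 concentrations. 3) Linear interpolation between surrounding doses. 4) Unreached endpoint = highest concentration. GI50 is the concentration that inhibits growth by half.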 Active and inactive are the calls of the source. Cut-off read from the data, not from the text of the source: active = GI50 up to about 1.1 µM and inactive = higher.

Assays:
Test in all cases: NCI tumour cell line growth inhibition, 48 h
HCC 2998 = tested on: HCC 2998
SR = tested on: SR
HOP-92 = tested on: HOP-92
OVCAR-3 = tested on: OVCAR-3
KM12 = tested on: KM12
NCI-H522 = tested on: NCI-H522
DU-145 = tested on: DU-145
UACC-257 = tested on: UACC-257
A498 = tested on: A498
SNB-75 = tested on: SNB-75
UACC-62 = tested on: UACC-62
CAKI-1 = tested on: CAKI-1
TK-10 = tested on: TK-10
SK-OV-3 = tested on: SK-OV-3
UO-31 = tested on: UO-31
Hs-578T = tested on: Hs-578T
BT-549 = tested on: BT-549
PC-3 = tested on: PC-3
SW-620 = tested on: SW-620
ACHN = tested on: ACHN
RPMI-8226 = tested on: RPMI-8226
OVCAR-4 = tested on: OVCAR-4
SN12C = tested on: SN12C
HL-60 = tested on: HL-60
SNB-19 = tested on: SNB-19
CCRF-CEM = tested on: CCRF-CEM
SF-539 = tested on: SF-539
OVCAR-5 = tested on: OVCAR-5
MDA-MB-435 = tested on: MDA-MB-435
IGROV-1 = tested on: IGROV-1
NCI/ADR-RES = tested on: NCI/ADR-RES
Malme-3M = tested on: Malme-3M
COLO 205 = tested on: COLO 205
MDA-N = tested on: MDA-N
HT-29 = tested on: HT-29
SF-268 = tested on: SF-268
K562 = tested on: K562
NCI-H460 = tested on: NCI-H460
MDA-MB-231 = tested on: MDA-MB-231
NCI-H226 = tested on: NCI-H226
A549 = tested on: A549
NCI-H23 = tested on: NCI-H23
HCT-116 = tested on: HCT-116
MOLT-4 = tested on: MOLT-4
M14 = tested on: M14
OVCAR-8 = tested on: OVCAR-8
SK-MEL-2 = tested on: SK-MEL-2
HOP-62 = tested on: HOP-62
LOX IMVI = tested on: LOX IMVI
EKVX = tested on: EKVX
T47D = tested on: T47D
U-251 = tested on: U-251
MCF7 = tested on: MCF7
SK-MEL-28 = tested on: SK-MEL-28
HCT-15 = tested on: HCT-15
SF-295 = tested on: SF-295
RXF 393 = tested on: RXF 393
786-0 = tested on: 786-0
SK-MEL-5 = tested on: SK-MEL-5

CC(C)C(Cl)CCC(C)(Cl)C(=O)CBr (stereo not drawn)
GI50 (HCC 2998): 18.5 µM (inactive) | GI50 (SR): 0.845 µM (active) | GI50 (HOP-92): 10 µM (inactive) | GI50 (OVCAR-3): 6.18 µM (inactive) | GI50 (KM12): 14.5 µM (inactive) | GI50 (NCI-H522): 1.06 µM (active) | GI50 (DU-145): 17.8 µM (inactive) | GI50 (UACC-257): 3.79 µM (inactive) | GI50 (A498): 15 µM (inactive) | GI50 (SNB-75): 16.1 µM (inactive) | GI50 (UACC-62): 2.77 µM (inactive) | GI50 (CAKI-1): 6.1 µM (inactive) | GI50 (TK-10): 5.83 µM (inactive) | GI50 (SK-OV-3): 20 µM (inactive) | GI50 (UO-31): 5.98 µM (inactive) | GI50 (Hs-578T): 5.73 µM (inactive) | GI50 (BT-549): 8.55 µM (inactive) | GI50 (PC-3): 8.3 µM (inactive) | GI50 (SW-620): 2 µM (inactive) | GI50 (ACHN): 7.19 µM (inactive) | GI50 (RPMI-8226): 0.634 µM (active) | GI50 (OVCAR-4): 4.6 µM (inactive) | GI50 (SN12C): 14.5 µM (inactive) | GI50 (HL-60): 0.425 µM (active) | GI50 (SNB-19): 29.6 µM (inactive) | GI50 (CCRF-CEM): 0.331 µM (active) | GI50 (SF-539): 16.9 µM (inactive) | GI50 (OVCAR-5): 12.8 µM (inactive) | GI50 (MDA-MB-435): 4.18 µM (inactive) | GI50 (IGROV-1): 6.67 µM (inactive) | GI50 (NCI/ADR-RES): 6.81 µM (inactive) | GI50 (Malme-3M): 9.57 µM (inactive) | GI50 (COLO 205): 3.4 µM (inactive) | GI50 (MDA-N): 1.95 µM (inactive) | GI50 (HT-29): 4.36 µM (inactive) | GI50 (SF-268): 20.7 µM (inactive) | GI50 (K562): 1.02 µM (active) | GI50 (NCI-H460): 16.1 µM (inactive) | GI50 (MDA-MB-231): 5.37 µM (inactive) | GI50 (NCI-H226): 17.8 µM (inactive) | GI50 (A549): 20.8 µM (inactive) | GI50 (NCI-H23): 5.5 µM (inactive) | GI50 (HCT-116): 3.03 µM (inactive) | GI50 (MOLT-4): 0.418 µM (active) | GI50 (M14): 3.43 µM (inactive) | GI50 (OVCAR-8): 3.37 µM (inactive) | GI50 (SK-MEL-2): 8.32 µM (inactive) | GI50 (HOP-62): 8.22 µM (inactive) | GI50 (LOX IMVI): 0.776 µM (active) | GI50 (EKVX): 18.2 µM (inactive) | GI50 (T47D): 2.44 µM (inactive) | GI50 (U-251): 12.7 µM (inactive) | GI50 (MCF7): 2.37 µM (inactive) | GI50 (SK-MEL-28): 5.01 µM (inactive) | GI50 (HCT-15): 2.99 µM | GI50 (SF-295): 19.3 µM (inactive) | GI50 (RXF 393): 2.44 µM (inactive) | GI50 (786-0): 3.96 µM (inactive) | GI50 (SK-MEL-5): 3.24 µM (inactive)

CCOc1ccc(/N=N/c2ccc3cc(/C(C)=N/NC(=O)/C(C#N)=C\c4ccc(N(CCC#N)CCC#N)cc4)c(=O)oc3c2)cc1
GI50 (HCC 2998): > 10 µM (inactive) | GI50 (SR): > 10 µM (inactive) | GI50 (HOP-92): > 10 µM (inactive) | GI50 (OVCAR-3): > 10 µM (inactive) | GI50 (KM12): > 10 µM (inactive) | GI50 (NCI-H522): > 10 µM (inactive) | GI50 (DU-145): > 10 µM (inactive) | GI50 (UACC-257): > 10 µM (inactive) | GI50 (A498): > 10 µM (inactive) | GI50 (SNB-75): 1.86 µM (inactive) | GI50 (UACC-62): > 10 µM (inactive) | GI50 (CAKI-1): > 10 µM (inactive) | GI50 (TK-10): > 10 µM (inactive) | GI50 (SK-OV-3): > 10 µM (inactive) | GI50 (UO-31): > 10 µM (inactive) | GI50 (Hs-578T): > 10 µM (inactive) | GI50 (BT-549): > 10 µM (inactive) | GI50 (PC-3): > 10 µM (inactive) | GI50 (SW-620): > 10 µM (inactive) | GI50 (ACHN): > 10 µM (inactive) | GI50 (RPMI-8226): > 10 µM (inactive) | GI50 (OVCAR-4): > 10 µM (inactive) | GI50 (SN12C): > 10 µM (inactive) | GI50 (HL-60): > 10 µM (inactive) | GI50 (SNB-19): > 10 µM (inactive) | GI50 (CCRF-CEM): > 10 µM (inactive) | GI50 (SF-539): > 10 µM (inactive) | GI50 (OVCAR-5): > 10 µM (inactive) | GI50 (MDA-MB-435): > 10 µM (inactive) | GI50 (IGROV-1): > 10 µM (inactive) | GI50 (NCI/ADR-RES): > 10 µM (inactive) | GI50 (Malme-3M): > 10 µM (inactive) | GI50 (COLO 205): > 10 µM (inactive) | GI50 (MDA-N): > 10 µM (inactive) | GI50 (HT-29): > 10 µM (inactive) | GI50 (SF-268): > 10 µM (inactive) | GI50 (K562): > 10 µM (inactive) | GI50 (NCI-H460): > 10 µM (inactive) | GI50 (MDA-MB-231): > 10 µM (inactive) | GI50 (NCI-H226): > 10 µM (inactive) | GI50 (A549): > 10 µM (inactive) | GI50 (NCI-H23): > 10 µM (inactive) | GI50 (HCT-116): > 10 µM (inactive) | GI50 (MOLT-4): > 10 µM (inactive) | GI50 (M14): > 10 µM (inactive) | GI50 (OVCAR-8): > 10 µM (inactive) | GI50 (SK-MEL-2): > 10 µM (inactive) | GI50 (HOP-62): > 10 µM (inactive) | GI50 (LOX IMVI): > 10 µM (inactive) | GI50 (EKVX): > 10 µM (inactive) | GI50 (T47D): > 10 µM (inactive) | GI50 (U-251): > 10 µM (inactive) | GI50 (MCF7): > 10 µM (inactive) | GI50 (SK-MEL-28): > 10 µM (inactive) | GI50 (HCT-15): > 10 µM | GI50 (SF-295): > 10 µM (inactive) | GI50 (RXF 393): > 10 µM (inactive) | GI50 (786-0): > 10 µM (inactive) | GI50 (SK-MEL-5): > 10 µM (inactive)
